PubChem BioAssay (NCI)
Where “and” joins values, the source holds several entries; their conditions need not be identical. Identical values can stand only once.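 Cultured in 96-well plates, cells were exposed to test compound for 48 hours across five concentrations. The concentration for 50% growth inhibition is given as GI50. Definition used: TGI = concentration required for complete inhibition of growth.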

Experiments:
Experiment in all cases: inhibition of tumour cell growth, NCI panel, 48 h
ACHN renal = system: ACHN renal
DU-145 prostate = system: DU-145 prostate
IGROV1 ovarian = system: IGROV1 ovarian
MOLT-4 leukemia = system: MOLT-4 leukemia
OVCAR-5 ovarian = system: OVCAR-5 ovarian
SK-MEL-5 melanoma = system: SK-MEL-5 melanoma
SK-OV-3 ovarian = system: SK-OV-3 ovarian
SNB-19 CNS = system: SNB-19 CNS
SNB-75 CNS = system: SNB-75 CNS
UO-31 renal = system: UO-31 renal

SMILES	TGI (ACHN renal) [µM]	TGI (DU-145 prostate) [µM]	TGI (IGROV1 ovarian)	TGI (MOLT-4 leukemia)	TGI (OVCAR-5 ovarian)	TGI (SK-MEL-5 melanoma)	TGI (SK-OV-3 ovarian)	TGI (SNB-19 CNS)	TGI (SNB-75 CNS)	TGI (UO-31 renal)	GI50 (ACHN renal) [µM]	GI50 (DU-145 prostate) [µM]	GI50 (IGROV1 ovarian)	GI50 (MOLT-4 leukemia)	GI50 (OVCAR-5 ovarian) [µM]	GI50 (SK-MEL-5 melanoma) [µM]	GI50 (SK-OV-3 ovarian)	GI50 (SNB-19 CNS)	GI50 (SNB-75 CNS)	GI50 (UO-31 renal)
c1ccc2cc(NCNc3ccc4ccccc4c3)ccc2c1	38	27.4	35 µM	29.9 µM	51.5 µM	18.5 µM	> 100 µM	> 100 µM	30.9 µM	41.6 µM	–	–	–	–	–	–	–	–	–	–
COc1cc(C(=O)N2CCN(c3ccccc3)CC2)c2ccccc2n1	> 100	0.468	> 100 µM	> 100 µM	> 100 µM	9.42 µM	> 100 µM	> 100 µM	–	> 83.7 µM	0.382	0.0648	0.0965 µM	0.863 µM	0.586	0.0541	0.0993 µM	0.929 µM	0.0402 µM	0.0875 µM
C[C@]12CC[C@@H]3c4cc(OC(F)F)c(OS(N)(=O)=O)cc4CC[C@H]3[C@@H]1CC[C@@H]2OS(N)(=O)=O	25.6	22.4	28.7 µM	47.7 µM	26.5 µM	13.4 µM	33.2 µM	21.8 µM	2.15 µM	19.4 µM	1.8	1.47	1.88 µM	1.06 µM	4.73	1.21	6.14 µM	1.48 µM	0.463 µM	1.42 µM
C=C1C(=O)O[C@H]2C[C@@H]1CC/C(C)=C/CC/C(C)=C/CC[C@@]2(C)O	> 100	> 100	74.2 µM	> 100 µM	> 100 µM	> 100 µM	> 100 µM	> 100 µM	> 100 µM	87.4 µM	55.3	45.3	23.1 µM	24.5 µM	> 100	37.7	> 100 µM	> 100 µM	70.8 µM	30.9 µM
Cc1ccc(NC(=O)c2cc3ccccc3c(N=Nc3cc(S(=O)(=O)O)ccc3O)c2O)c(C)c1	23	> 100	> 100 µM	> 100 µM	89.2 µM	> 100 µM	> 100 µM	71.3 µM	> 100 µM	34.1 µM	–	–	–	–	–	–	–	–	–	–
CC1(C)CC[C@]2(C(=O)O)CC[C@]3(C)C(=CC[C@@H]4[C@@]5(C)C[C@H](O)[C@H](O)[C@@](C)(C(=O)O)[C@@H]5CC[C@]43C)[C@@H]2C1	> 100	> 100	> 100 µM	> 100 µM	> 100 µM	> 100 µM	> 100 µM	> 100 µM	> 100 µM	> 100 µM	–	–	–	–	–	–	–	–	–	–
O=C(O)C(C(=O)O)P(=S)(S)c1ccccc1 (stereo not given)	> 100	> 100	> 100 µM	> 100 µM	> 100 µM	> 31.6 µM	> 100 µM	> 100 µM	> 100 µM	> 100 µM	–	–	–	–	–	–	–	–	–	–
Cc1nc(-c2nc(-c3ccc(OC(F)(F)F)cc3)no2)nn1Cc1cccc(N2CCC(S(C)(=O)=O)CC2)c1	> 65	> 100	> 100 µM	> 100 µM	> 100 µM	1.06 µM	89.8 µM	95.4 µM	48.5 µM	> 100 µM	> 26.7	> 42.8	> 26.5 µM	3.3 µM	> 65.8	< 0.01	16.3 µM	8.75 µM	5.13 µM	1.46 µM
O=C1NC2C(=CC(O)C(O)C2O)c2cc3c(cc21)OCO3 (stereo not given)	1.57	1.83	9.21 µM and 3.01 µM	0.511 µM and 1.24 µM	4.14 µM and 11.4 µM	0.936 µM and 5.01 µM and 1.23 µM	7.09 µM and 4.31 µM	0.832 µM and 2.12 µM	0.953 µM and 4.31 µM and 4 µM	2.29 µM and 2.41 µM	0.334	–	0.393 µM	0.305 µM and 0.454 µM	0.802	0.282	0.232 µM and 0.272 µM	0.296 µM and 0.111 µM	0.165 µM and 0.291 µM	0.279 µM and 0.264 µM
O=[N+]([O-])c1ccc(C2CC(c3ccccc3)=Nc3ccccc3S2)cc1 (stereo not given)	> 100	> 100	> 100 µM	> 100 µM	> 100 µM	> 100 µM	> 100 µM	> 100 µM	> 100 µM	> 100 µM	88.7	5.15	13.3 µM	6.04 µM	> 100	> 100	> 100 µM	> 100 µM	8.55 µM	3.8 µM
O=C([O][Hg][CH2]C1OCCOC1[CH2][Hg][O]C(=O)c1ccccc1)c1ccccc1 (stereo not given)	3.4	29.6	26.9 µM	5.37 µM	36.7 µM	22.8 µM	34.1 µM	30.8 µM	29.5 µM	3.27 µM	1.95	16.1	10.1 µM	2.13 µM	22.3	7.58	19.4 µM	16.5 µM	16 µM	1.79 µM
CCc1nc(N)nc(N)c1-c1ccc2nnn(O)c2c1	> 100	> 100	> 100 µM	> 100 µM	> 100 µM	> 100 µM	> 100 µM	> 100 µM	> 100 µM	> 100 µM	–	–	–	–	–	–	–	–	–	–
CONC(C)=O	> 100	> 100	> 100 µM	> 100 µM	> 100 µM	> 100 µM	> 100 µM	> 100 µM	> 100 µM	> 100 µM	–	–	–	–	–	–	–	–	–	–
O=[N+]([O-])c1ccc(C2=Nn3c(nnc3-c3ccc(Cl)cc3)SC2)o1	27.3	39.6	17.1 µM	8.59 µM	33.8 µM	25.3 µM	34.1 µM	29.9 µM	32 µM	15.4 µM	–	–	–	–	–	–	–	–	–	–
CCCCCCCCCCCCSC1=C(Cl)C(=O)C(OC)=C(OC)C1=O	18.2	31.5	20.7 µM	18.6 µM	11.7 µM	3.66 µM	27.3 µM	15 µM	10.7 µM	11.5 µM	1.52	11.2	6.99 µM	0.617 µM	3.49	0.49	9.78 µM	3.64 µM	1.21 µM	2.27 µM
CCCc1cc(=O)n2c(C(=O)Nc3cccc(C(=O)OCC)c3)c(C(=O)Nc3ccc(F)cc3)sc2n1	109	> 140	65.9 µM	> 140 µM	> 140 µM	> 140 µM	75 µM	132 µM	17.5 µM	42.6 µM	4.01	58.8	24.8 µM	> 140 µM	136	75.1	23.9 µM	25.5 µM	3.54 µM	7.27 µM
COc1cc2c(cc1Cc1cccc(Cl)c1F)c(=O)c(C(=O)O)cn2[C@@H](CO)C(C)C	20.9	18.8	5.61 µM	18.5 µM	15.4 µM	8.88 µM	26.3 µM	16 µM	13.7 µM	11.9 µM	4.63	5.62	2.42 µM	4.67 µM	4.28	2.85	4.64 µM	3.07 µM	2.53 µM	2.62 µM
CCNC(=O)Nc1ccc(Oc2ccnc3ccc4c(ccn4C)c23)cc1	> 100	> 100	> 100 µM	> 100 µM	> 100 µM	> 100 µM	56.5 µM	> 100 µM	> 100 µM	> 100 µM	59.2	> 100	> 100 µM	58.2 µM	> 100	75.5	19.4 µM	40.1 µM	59.9 µM	92.3 µM
CCN1C(=O)N(CC)C2C1NN=c1s/c(=C\c3ccco3)c(=O)n12 (stereo not given)	> 100	> 100	> 100 µM	> 100 µM	> 100 µM	55.3 µM	> 100 µM	> 100 µM	–	> 100 µM	0.818	0.703	1.16 µM	0.824 µM	1.31	0.415	0.816 µM	0.741 µM	0.239 µM	0.852 µM
N=C(N)SCc1c2ccccc2c(CSC(=N)N)c2ccccc12	18.5	20	78.4 µM	8.23 µM	28.7 µM	20.2 µM	22.6 µM	25 µM	26.9 µM	34.5 µM	3.99	5.63	18.2 µM	1.24 µM	14.8	6.03	10.4 µM	11.5 µM	12.2 µM	14.1 µM
N#Cc1c(N2CCOCC2)nc(=S)[nH]c1-c1ccccc1	> 100	> 100	> 100 µM	> 100 µM	> 100 µM	> 100 µM	98.6 µM	> 100 µM	> 100 µM	> 100 µM	14.1	31	3.15 µM	10.7 µM	18.3	9.36	8.48 µM	89.9 µM	6.12 µM	4.57 µM
COc1cc(/C(=C2/O[C@@H]([C@H]3COC(C)(C)O3)[C@H]3OC(C)(C)O[C@@H]23)c2ccc3ccccc3c2)cc(OC)c1OC	> 100	> 100	10.9 µM	> 100 µM	> 100 µM	15.4 µM	> 100 µM	6.08 µM	7.44 µM	> 100 µM	4.4	4.33	3.3 µM	> 100 µM	14	4.07	4.37 µM	2.49 µM	2.89 µM	3.47 µM
COC(=O)C1=COC(C)C2CN3CCc4c([nH]c5cc(OC)c(OC)cc45)C3CC12 (stereo not given)	> 100	> 100	> 100 µM	> 100 µM and 79.1 µM	> 100 µM	> 100 µM	> 100 µM	> 100 µM	> 100 µM	> 100 µM	–	–	> 100 µM and 45.7 µM	–	–	–	–	–	38.7 µM and > 100 µM	–
CC1=CCCC2C1(C)CCC(C)C2(C)Cc1cc(O)ccc1O (stereo not given)	25.6	30.4	16.6 µM and 21.6 µM	21 µM and 8.36 µM	28.7 µM and 38.9 µM	27.7 µM and 24.9 µM	29.9 µM and 39.1 µM	27.3 µM and 18.5 µM	20.5 µM and 21.7 µM	19.1 µM and 15.4 µM	–	–	4.22 µM	–	–	10.6	–	11.5 µM	–	–
C#CCN(Cc1nc2cc(C(F)(F)F)ccc2nc1-c1ccccc1)c1ccc(C)cc1	> 33.5	> 77.9	> 64.9 µM	> 79.9 µM	> 40.9 µM	> 32.4 µM	> 26.4 µM	> 36.1 µM	> 25.2 µM	45.5 µM	–	> 34.5	6.13 µM	3.1 µM	> 21.2	17	8.56 µM	6.2 µM	–	13.2 µM
CN1CCC2(CC1)NC(=O)c1c(c3ccc(Cl)c(Cl)c3n1C)C2C#N (stereo not given)	19.4	15.2	7.21 µM	> 28 µM	24.3 µM	5.18 µM	32 µM	27.4 µM	18.8 µM	17.4 µM	5.75	6.01	2.31 µM	4.52 µM	8.67	2.11	14.9 µM	12.8 µM	4.46 µM	4.21 µM
C[C@@H](NC(=O)/C(C#N)=C/c1ccc([N+](=O)[O-])cc1)c1ccccc1	3.29	4.33	8.13 µM	7.3 µM	4.06 µM	3.95 µM	23.3 µM	7.31 µM	8.33 µM	1.06 µM	1.76	2.07	2.9 µM	3.02 µM	1.96	1.94	8.33 µM	2.52 µM	2.19 µM	0.559 µM
COc1ccc2c(c1)CC[C@@H]1[C@@H]2CC[C@]2(C)c3c(cc(C(=O)O)c4sccc34)C[C@@H]12	78.4	36.2	> 100 µM	25.4 µM	50.1 µM	28.4 µM	61.2 µM	48.4 µM	47.9 µM	64.7 µM	18.9	19.2	29.7 µM	10.1 µM	26	14.7	26 µM	17.8 µM	20.8 µM	20.2 µM
